Reference: patent US20210298305A1, “USE OF A DIFLUORO-(2-HYDROXYPROPYL)PYRIDINE COMPOUND AS A FUNGICIDE FOR CONTROL OF PHYTOPATHOGENIC FUNGI OF WHEAT” (Dow AgroSciences LLC, priority 2016, published 2021)

Key:
[1] = system: Puccinia recondita (PUCCRT); assay: Field assessment of brown rust in spring wheat (curative tests); type: in vivo; conditions: for Test A % Control (based on AUDPC): early curative; for Test B % Control (based on AUDPC): late curative
[2] = system: Parastagonospora nodorum (LEPTNO); assay: Field assessment of glume blotch in spring wheat (protectant and curative); type: in vivo; conditions: for 2 DC percent control based on AUDPC: 2 Day curative; for 3 DP percent control based on AUDPC: 3 Day protectant
Text: A fungicidal treatment containing Compound I, sprayed alone in an EC formulation […] and tank mixed with an adjuvant (Agnique BP-420, 50% w/w at 0.3% v/v), was applied at B37-39 growth stage of spring wheat ([…] variety) for protectant tests at rates of 25, 50, 100 and 150 g ai/ha. After three days, the wheat plants were artificially inoculated with Parastagonospora nodorum at B39 growth stage of wheat. Compound I was then applied two days later (same rates and formulations) to the plants at B39-41 growth stage of wheat (2 day curative test).

[3] = system: mixture of Fusarium graminearum and Fusarium culmorum isolates; type: in vivo; conditions: 100 g ai/ha, with Agnique BP-420
[4] = system: Blumeria graminis f. sp. tritici (ERYSGT); assay: Field assessment of powdery mildew in Durum wheat, three trials; type: in vivo
[5] = system: Puccinia striiformis (PUCCST); assay: Field assessment of yellow (stripe) rust in winter wheat, three curative trials; conditions: tank mix with Trycol 5941
Description: A fungicidal treatment containing Compound I was assessed against yellow rust of wheat (PUCCST) in three separate field trials. In each trial, all Compound I treatments were applied in a tank mix with Trycol 5941 (50% w/w) at 0.2% v/v as an adjuvant. […] The treatment was part of an experimental trial designed as a randomized complete block with four replications and a plot of approximately 1×2 m. Treatments were applied at water volume of 200 L/ha, using a backpack plot sprayer (BKPCKAIR, 1 m band width, FLATFAN F110-03 Lurmark nozzle) and pressurized at 180 kPa. Disease severity (% visual infection) was assessed 4 times on leaf 1 (L1, flag leaf, 33-47 DAA) and 5 times on leaf 2 (L2, 27-54 DAA).
The treatment was part of an experimental trial designed as a randomized complete block with four replications and a plot of approximately 2×3 m. Treatments were applied at water volume of 200 L/ha, using a backpack precision plot sprayer (BKCKENG, 2 m band width, FFA110-015 Hardi nozzle) and pressurized at 200 kPa. Disease severity (% visual infection) was assessed following application A one time on leaf 2 (23 DAA). Following application B, disease severity was assessed 4 times on leaf 1 (11-45 DAA) and 3 times on leaf 2 (11-31 DAA).
The treatment was part of an experimental trial designed as a randomized complete block with four replications and a plot of approximately 2×3 m. Treatments were applied at water volume of 150 L/ha, using a backpack precision plot sprayer ([sequence], 2 m band width, FLAT FAN FF015 nozzle). Disease severity (% visual infection) was assessed 3 times on leaf 1 (47-68 DAA) and 4 times on leaf 2 (36-68 DAA).
Disease severity (percentage of visual diseased foliage on whole plot or leaves) in all three field trials was recorded following EPPO PP1/26 guideline prescriptions. Area under the disease progress curve (AUDPC) was calculated for each plot in each of the three trials using the sets of recorded severity data. Relative AUDPC (% control based on AUDPC) was calculated as percent of the nontreated control.

[6] = 25 g ai/ha, with adjuvant Agnique BP-420
[7] = 50 g ai/ha, with adjuvant Agnique BP-420
[8] = 100 g ai/ha, with adjuvant Agnique BP-420
[9] = 150 g ai/ha, with adjuvant Agnique BP-420

N#Cc1ccc(Oc2ccc(C(F)(F)C(O)(Cn3ncnc3S)c3ccc(F)cc3F)nc2)cc1 (stereo not shown) [Compound I, 4-((6-(2-(2,4-difluorophenyl)-1,1-difluoro-2-hydroxy-3-(5-mercapto-1H-1,2,4-triazol-1-yl)propyl)pyridin-3-yl)oxy)benzonitrile]
C (26-50): 2 DC percent control based on AUDPC [2, 6] | 2 DC percent control based on AUDPC ([2]; 50 g ai/ha, no adjuvant) | 2 DC percent control based on AUDPC [2, 7] | 3 DP percent control based on AUDPC [2, 6] | 3 DP percent control based on AUDPC ([2]; 50 g ai/ha, no adjuvant) | 3 DP percent control based on AUDPC [2, 7]
B (51-75): Test B % Control (based on AUDPC) [1, 6] | 2 DC percent control based on AUDPC [2, 8] | 2 DC percent control based on AUDPC [2, 9] | 3 DP percent control based on AUDPC [2, 8] | 3 DP percent control based on AUDPC [2, 9] | Percent Control (calculated with FHB index using incidence and % infection) ([3]; sprayed on heads at flowering one day before inoculation, winter wheat) | % Control (AUDPC over 3 trials) ([4]; 25 g ai/ha, EC formulation, Adjuvant X (Plurafac LF 1300 EC)) | % Control (AUDPC over 3 trials) ([4]; 25 g ai/ha, SC formulation, Adjuvant Y (Agnique BP420 EW with Agnique FOH TDA-9)) | % Control (AUDPC over 3 trials) ([4]; 50 g ai/ha, EC formulation, Adjuvant X (Plurafac LF 1300 EC)) | % Control (AUDPC over 3 trials) ([4]; 50 g ai/ha, SC formulation, Adjuvant Y (Agnique BP420 EW with Agnique FOH TDA-9)) | % Control (AUDPC over 3 trials) ([4]; 75 g ai/ha, SC formulation, Adjuvant Y (Agnique BP420 EW with Agnique FOH TDA-9)) | Curative Trials (% Control), AUDPC average over three trials ([5]; 50 g ai/ha) | Curative Trials (% Control), AUDPC average over three trials ([5]; 100 g ai/ha) | Curative Trials (% Control), AUDPC average over three trials ([5]; 150 g ai/ha)
A (76-100): Test A % Control (based on AUDPC) [1, 6] | Test A % Control (based on AUDPC) ([1]; 50 g ai/ha, no adjuvant) | Test A % Control (based on AUDPC) [1, 7] | Test A % Control (based on AUDPC) ([1]; 100 g ai/ha, no adjuvant) | Test A % Control (based on AUDPC) [1, 8] | Test A % Control (based on AUDPC) [1, 9] | Test B % Control (based on AUDPC) ([1]; 50 g ai/ha, no adjuvant) | Test B % Control (based on AUDPC) [1, 7] | Test B % Control (based on AUDPC) ([1]; 100 g ai/ha, no adjuvant) | Test B % Control (based on AUDPC) [1, 8] | Test B % Control (based on AUDPC) [1, 9] | % Control (AUDPC over 3 trials) ([4]; 75 g ai/ha, EC formulation, Adjuvant X (Plurafac LF 1300 EC)) | % Control (AUDPC over 3 trials) ([4]; 100 g ai/ha, EC formulation, Adjuvant X (Plurafac LF 1300 EC)) | % Control (AUDPC over 3 trials) ([4]; 100 g ai/ha, SC formulation, Adjuvant Y (Agnique BP420 EW with Agnique FOH TDA-9)) | % Control (AUDPC over 3 trials) ([4]; 150 g ai/ha, EC formulation, Adjuvant X (Plurafac LF 1300 EC)) | % Control (AUDPC over 3 trials) ([4]; 150 g ai/ha, SC formulation, Adjuvant Y (Agnique BP420 EW with Agnique FOH TDA-9))
8.4 t/ha: Yield ([3]; winter wheat crop harvest, untreated 6.0)
